According to US20060041123A1, “Antibacterial agents” (priority 2002, published 2006):

Experiment: Antimicrobial activity assay: whole-cell MIC by broth microdilution (NCCLS M7-A6)
Format: cell-based
Settings: versus all the organisms named above (S. aureus WCUH29, S. pneumoniae 1629, S. pyogenes CN 10, E. faecalis 2, H. influenzae NEMC1, E. coli 7623, M. catarrhalis Ravasio); read-out: MIC
In short: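 Broth microdilution per NCCLS M7-A6, with serial two-fold compound dilutions from 0.016 to 16 mcg/mL. MIC read as the lowest concentration inhibiting visible growth, using a mirror reader.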

SMILES	MIC [µg/mL]
COc1ccc2ncc(F)c(CCN3CCC(NCc4cnc5c(c4)OCCO5)CC3)c2c1.Cl.Cl [Example 85, N-(2,3-dihydro[1,4]dioxino[2,3-b]pyridin-7-ylmethyl)-1-(2-[3-fluoro-6-(methoxy)-4-quinolinyl]ethyl}-4-piperidinamine dihydrochloride]	≤ 2
COc1ccc2ncc(F)c(CCN3CCC(NCc4cc5c(cn4)OCCS5)CC3)c2c1.Cl.Cl [Example 86, N-(2,3-dihydro[1,4]oxathiino[2,3-c]pyridin-7-ylmethyl)-1-{2-[3-fluoro-6-(methoxy)-4-quinolinyl]ethyl}-4-piperidinamine dihydrochloride]	≤ 2
COc1ccc2ncc(Cl)c(CCN3CCC(NCc4cc5c(cn4)OCCO5)(C(N)=O)CC3)c2n1.Cl.Cl [Example 91, 1-{2-[3-chloro-6-(methoxy)-1,5-naphthyridin-4-yl]ethyl}-4-[(2,3-dihydro[1,4]dioxino[2,3-c]pyridin-7-ylmethyl)amino]-4-piperidinecarboxamide dihydrochloride]	≤ 2
COc1ccc2ncc(F)c(CCN3CCC(CO)(NCc4cc5c(cn4)OCCO5)CC3)c2c1.Cl.Cl [Example 92, (4[(2,3-dihydro[1,4]dioxino[2,3-c]pyridin-7-ylmethyl)amino]-1-{2-[3-fluoro-6-(methoxy)-4-quinolinyl]ethyl}-4-piperidinyl)methanol dihydrochloride]	≤ 2
COc1ccc2ncc(F)c(CCN3CCC(CO)(NC(=O)c4ccc5c(n4)NC(=O)CS5)CC3)c2n1.Cl [Example 93, N-[1-{2-[3-fluoro-6-(methoxy)-1,5-naphthyridin-4-yl]ethyl}-4-(hydroxymethyl)-4-piperidinyl]-3-oxo-3,4-dihydro-2H-pyrido[3,2-b][1,4]thiazine-6-carboxamide hydrochloride]	≤ 2
COc1ccc2ncc(F)c(CCN3CCC(NC(=O)c4ccc5c(n4)NC(=O)CO5)CC3)c2c1.Cl [Example 94, N-(1-{2-[3-fluoro-6-(methoxy)-4-quinolinyl]ethyl}-4-piperidinyl)-3-oxo-3,4-dihydro-2H-pyrido[3,2-b][1,4]oxazine-6-carboxamide hydrochloride]	≤ 2
COc1ccc2ncc(F)c(CCN3CCC(NC(=O)c4ccc5c(n4)NC(=O)CS5)CC3)c2c1.Cl [Example 95, N-(1-{2-[3-fluoro-6-(methoxy)-4-quinolinyl]ethyl}-4-piperidinyl)3-oxo-3,4-dihydro-2H-pyrido[3,2-b][1,4]thiazine-6-carboxamide hydrochloride]	≤ 2
COc1cc(F)c2ncc(Cl)c(CCN3CC[C@H](NCc4cc5c(cn4)OCCO5)[C@H](O)C3)c2c1.Cl.Cl [Example 98, (3R,4S)-1-{2-[3-chloro-8-fluoro-6-(methoxy)-4-quinolinyl]ethyl}-4-[(2,3-dihydro[1,4]dioxino[2,3-c]pyridin-7-ylmethyl)amino]-3-piperidinol dihydrochloride]	≤ 2
COc1ccc2ncc(Cl)c(C(CO)CN3CCC(NCc4ccc5c(n4)NC(=O)CS5)CC3)c2n1.Cl.Cl (stereo not shown) [Example 105, 6-{[(1-{2-[3-chloro-6-(methoxy)-1,5-naphthyridin-4-yl]-3-hydroxypropyl}-4-piperidinyl)amino]methyl}-2H-pyrido[3,2-b][1,4]thiazin-3(4H)-one dihydrochloride]	≤ 2
Cl.Cl.O=C1CSc2ccc(CNC3CCN(CCc4c(F)cnc5ccc(F)cc45)CC3)nc2N1 [Example 106, 6-[({1-[2-(3,6-difluoro-4-quinolinyl)ethyl]-4-piperidinyl}amino)methyl]-2H-pyrido[3,2-b][1,4]thiazin-3(4H)-one dihydrochloride]	≤ 2
COc1c(F)ccc2ncc(Cl)c(CCN3CCC(NCc4cc5c(cn4)OCCO5)CC3)c12.Cl.Cl [Example 110, 1-{2-[3-chloro-6-fluoro-5-(methoxy)-4-quinolinyl]ethyl}-N-(2,3-dihydro[1,4]dioxino[2,3-c]pyridin-7-ylmethyl)-4-piperidinamine dihydrochloride]	≤ 2
COc1ccc2ncc(F)c(CCN3CCC(NCc4cc5c(cn4)OCCC5)CC3)c2n1.Cl.Cl [Example 126, N-(3,4-dihydro-2H-pyrano[2,3-c]pyridin-6-ylmethyl)-1-{2-[3-fluoro-6-(methoxy)-1,5-naphthyridin-4-yl]ethyl}-4-piperidinamine dihydrochloride]	≤ 2
COc1ccc2ncc(F)c(CCN3CCC(NCc4ccc5c(c4)NC(=O)CCS5)CC3)c2n1 [Example 128, 7-{[(1-{2-[3-fluoro-6-(methoxy)-1,5-naphthyridin-4-yl]ethyl}-4-piperidinyl)amino]methyl}-2,3-dihydro-1,5-benzothiazepin-4(5H)-one]	≤ 2
COc1ccc2ncc(F)c(CCN3CCC(C)(NCc4ccc5c(n4)NC(=O)CO5)CC3)c2n1.Cl.Cl [Example 138, 6-{[(1-{2-[3-fluoro-6-(methoxy)-1,5-naphthyridin-4-yl]ethyl}-4-methyl-4-piperidinyl)amino]methyl}-2H-pyrido[3,2-b][1,4]oxazin-3(4H)-one dihydrochloride]	≤ 2
COc1ccc2ncc(F)c(CCN3CCC(C)(NCc4ccc5c(n4)NC(=O)CS5)CC3)c2n1.Cl.Cl [Example 139, 6-{[(1-{2-[3-fluoro-6-(methoxy)-1,5-naphthyridin-4-yl]ethyl}-4-methyl-4-piperidinyl)amino]methyl}-2H-pyrido[3,2-b][1,4]thiazin-3(4H)-one dihydrochloride]	≤ 2
COc1ccc2ncc(F)c(CCN3CCC(C)(NCc4cc5c(cn4)OCCO5)CC3)c2n1.Cl.Cl [Example 140, N-(2,3-dihydro[1,4]dioxino[2,3-c]pyridin-7-ylmethyl)-1-{2-[3-fluoro-6-(methoxy)-1,5-naphthyridin-4-yl]ethyl}-4-methyl-4-piperidinamine dihydrochloride]	≤ 2
COc1ccc2ncc(F)c(CCN3CCC(NCc4ccc5c(c4)OCCO5)CC3)c2n1 [Example 157, N-(2,3-dihydro-1,4-benzodioxin-6-ylmethyl)-1-{2-[3-fluoro-6-(methoxy)-1,5-naphthyridin-4-yl]ethyl}-4-piperidinamine]	≤ 2
COc1cc(F)c2ncc(Cl)c(CCN3CCC(NCc4ccc5c(n4)NC(=O)CS5)CC3)c2c1 [Example 160, 6-{[(1-{2-[3-chloro-8-fluoro-6-(methoxy)-4-quinolinyl]ethyl}-4-piperidinyl)amino]methyl}-2H-pyrido[3,2-b][1,4]thiazin-3(4H)-one]	≤ 2
COc1cc(F)c2ncc(Cl)c(CCN3CCC(NCc4cc5c(cn4)OCCO5)CC3)c2c1 [Example 161, 1-{2-[3-chloro-8-fluoro-6-(methoxy)-4-quinolinyl]ethyl}-N-(2,3-dihydro[1,4]dioxino[2,3-c]pyridin-7-ylmethyl)-4-piperidinamine]	≤ 2
COc1ccc2ncc(F)c(CCN3CCC(C)(NC(=O)c4ccc5c(n4)NC(=O)CO5)CC3)c2n1 [Example 167, N-(1-{2-[3-fluoro-6-(methoxy)-1,5-naphthyridin-4-yl]ethyl}-4-methyl-4-piperidinyl)-3-oxo-3,4-dihydro-2H-pyrido[3,2-b][1,4]oxazine-6-carboxamide]	≤ 2
COc1ccc2ncc(F)c(CCN3CCC(C)(NC(=O)c4ccc5c(n4)NC(=O)CS5)CC3)c2n1 [Example 168, N-(1-{2-[3-fluoro-6-(methoxy)-1,5-naphthyridin-4-yl]ethyl}-4-methyl-4-piperidinyl)-3-oxo-3,4-dihydro-2H-pyrido[3,2-b][1,4]thiazine-6-carboxamide]	≤ 2
COc1ccc2ncc(F)c(CCN3CCC(NCc4ccc5c(c4)CCO5)CC3)c2n1.Cl.Cl [Example 178, N-(2,3-dihydro-1-benzofuran-5-ylmethyl)-1-{2-[3-fluoro-6-(methoxy)-1,5-naphthyridin-4-yl]ethyl}-4-piperidinamine dihydrochloride]	≤ 2
